The text below walks through data of PubChem BioAssay (NCI).

The structures appear in SMILES notation.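 Five concentrations, 48 hours, 96-well plates. TGI: total growth inhibition.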

Some test systems named below: M19-MEL melanoma; SF-539 CNS; DLD-1 colon; MOLT-4 leukemia; LXFL 529 NSCLC; SNB-78 CNS; HT29 colon; KM20L2 colon; DMS 273 small cell lung; COLO 205 colon; XF 498 CNS; CAKI-1 renal; NCI-H522 lung.
Common to all, as to experiment: inhibition of tumour cell growth, NCI panel, 48 h

As to `Cc1ccc(Sc2ccccc2[N+](=O)[O-])cc1`, the TGI with M19-MEL melanoma was > 100 µM; with SF-539 CNS it was > 100 µM; with DLD-1 colon, > 100 µM; in the assay with MOLT-4 leukemia, 81.4 µM; in the assay on LXFL 529 NSCLC, > 100 µM; in the assay with SNB-78 CNS it was 95.4 µM. Further, the TGI in the assay with HT29 colon is 62.2 µM; in the assay on KM20L2 colon it was > 100 µM; in the assay on DMS 273 small cell lung, 82.5 µM; in the assay on COLO 205 colon it was 62.3 µM.
With `CNc1ccc2ncccc2c1[N+](=O)[O-]`, the TGI with M19-MEL melanoma, in the assay with SF-539 CNS, with DLD-1 colon, in the assay with XF 498 CNS, with MOLT-4 leukemia and in the assay on LXFL 529 NSCLC was > 100 µM throughout. Further, the TGI with SNB-78 CNS, in the assay with HT29 colon, in the assay on CAKI-1 renal, with KM20L2 colon and in the assay with DMS 273 small cell lung was > 100 µM each time.
As to `CCC(COC(=O)CC[C@@H](NC(=O)C(C)NC(=O)C(C)OC1C(O)C(CO)OC(OCc2ccccc2)C1NC(C)=O)C(N)=O)NC1c2ccccc2Nc2cccc([N+](=O)[O-])c21` (some centres not stated), the TGI in the assay with M19-MEL melanoma, in the assay on SF-539 CNS, with DLD-1 colon, in the assay with XF 498 CNS, with MOLT-4 leukemia and in the assay with LXFL 529 NSCLC was > 100 µM throughout. Moreover, the TGI with SNB-78 CNS, in the assay on HT29 colon, in the assay on CAKI-1 renal, with KM20L2 colon, with DMS 273 small cell lung and in the assay with NCI-H522 lung was > 100 µM in each case. Besides, the TGI with COLO 205 colon is > 100 µM.
For `CN(C)CCNC(=O)c1cccc2cc3cc(O)ccc3nc12`, the TGI with M19-MEL melanoma amounted to 3.68 µM; in the assay with SF-539 CNS, 4.23 µM; in the assay with DLD-1 colon, 4.88 µM; in the assay on XF 498 CNS it was 2.51 µM; with MOLT-4 leukemia, 3.17 µM; with SNB-78 CNS it was 18.2 µM. In addition, the TGI in the assay on HT29 colon worked out at 4.95 µM; in the assay with KM20L2 colon, 8.13 µM; in the assay on DMS 273 small cell lung, 2.52 µM; in the assay on COLO 205 colon, 3.88 µM.
`CC(C)OP(=O)(OC(C)C)C1=NN(c2ccc([N+](=O)[O-])cc2)C(P(=O)(OC(C)C)OC(C)C)=NN1c1ccc([N+](=O)[O-])cc1`: the TGI in the assay with M19-MEL melanoma, in the assay on SF-539 CNS, in the assay on DLD-1 colon, in the assay on XF 498 CNS, with MOLT-4 leukemia and with LXFL 529 NSCLC was > 100 µM throughout. The TGI in the assay with HT29 colon, in the assay with CAKI-1 renal, in the assay on KM20L2 colon, with DMS 273 small cell lung, in the assay with NCI-H522 lung and with COLO 205 colon was > 100 µM throughout.
On to `CC(=O)NC(CCCCN)C(=O)NCc1ccccc1` (configuration not stated), for which the TGI in the assay on M19-MEL melanoma, in the assay on SF-539 CNS, in the assay on DLD-1 colon, in the assay on XF 498 CNS, with MOLT-4 leukemia and in the assay with LXFL 529 NSCLC was > 100 µM each time. Further, the TGI with HT29 colon, in the assay with CAKI-1 renal, with KM20L2 colon, with DMS 273 small cell lung, in the assay on NCI-H522 lung and in the assay with COLO 205 colon was > 100 µM each time.
As to `COC(=O)CC(C(C(=O)OCc1ccccc1)C(C)O)N1C(=O)OC(c2ccccc2)C1c1ccccc1` (configuration not stated), the TGI with M19-MEL melanoma, in the assay on SF-539 CNS, with DLD-1 colon, in the assay on XF 498 CNS, with MOLT-4 leukemia and in the assay on LXFL 529 NSCLC was > 100 µM in each case. Also, the TGI in the assay on HT29 colon, with KM20L2 colon, in the assay with DMS 273 small cell lung and in the assay with COLO 205 colon was > 100 µM in each case.
With `CC1(C)C2CCC3(OCCO3)C1C(O)C2` (configuration not stated), the TGI in the assay on M19-MEL melanoma, in the assay on SF-539 CNS, in the assay on DLD-1 colon, in the assay with XF 498 CNS, in the assay on MOLT-4 leukemia and in the assay with LXFL 529 NSCLC was > 100 µM in each case. For the same compound, the TGI with SNB-78 CNS, in the assay with HT29 colon, in the assay on CAKI-1 renal, with KM20L2 colon, in the assay on DMS 273 small cell lung and with NCI-H522 lung was > 100 µM each time.
On to `COc1ccc2c(c1)OCCc1cn[nH]c1-2`, for which the TGI with M19-MEL melanoma was > 100 µM; in the assay on SF-539 CNS, > 100 µM; in the assay with DLD-1 colon, > 100 µM; in the assay on XF 498 CNS it was 73.6 µM; with MOLT-4 leukemia it was 70.4 µM; with SNB-78 CNS it was > 100 µM. Moreover, the TGI with HT29 colon, with KM20L2 colon, with DMS 273 small cell lung, in the assay with NCI-H522 lung and with COLO 205 colon was > 100 µM each time.
On to `CCSCN(C)c1nc(N(C)C)nc(N(C)C)n1`, for which the TGI in the assay on M19-MEL melanoma, with SF-539 CNS, in the assay on DLD-1 colon, in the assay on MOLT-4 leukemia, with LXFL 529 NSCLC and in the assay with SNB-78 CNS was > 100 µM throughout. Moreover, the TGI was > 100 µM with HT29 colon; > 100 µM with CAKI-1 renal; > 100 µM in the assay on KM20L2 colon; > 100 µM in the assay on DMS 273 small cell lung; 91.4 µM in the assay with NCI-H522 lung; > 100 µM with COLO 205 colon.
Consider `O=C1C[C@@H]2[C@@H](CCC23CC3)N1`, for which the TGI with M19-MEL melanoma, in the assay on SF-539 CNS, with DLD-1 colon, in the assay with LXFL 529 NSCLC, in the assay with SNB-78 CNS and in the assay with HT29 colon was > 100 µM throughout. Moreover, the TGI with CAKI-1 renal, in the assay on KM20L2 colon, with DMS 273 small cell lung, with NCI-H522 lung and with COLO 205 colon was > 100 µM in each case.
As for `O=NN(CCF)C(=O)NC1CC2CCC1C2` (configuration not stated), the TGI in the assay on M19-MEL melanoma, with SF-539 CNS, in the assay on DLD-1 colon, with MOLT-4 leukemia, in the assay on SNB-78 CNS and with HT29 colon was > 100 µM throughout. The TGI with CAKI-1 renal, in the assay with KM20L2 colon, in the assay with DMS 273 small cell lung, with NCI-H522 lung and with COLO 205 colon was > 100 µM each time.
`O=C1Nc2cc([N+](=O)[O-])c(Br)cc2C1=O`: the TGI worked out at 31.6 µM in the assay with M19-MEL melanoma; 41 µM with SF-539 CNS; 46.5 µM in the assay on DLD-1 colon; 24.6 µM with XF 498 CNS; 43 µM with MOLT-4 leukemia; 50.1 µM with SNB-78 CNS. Moreover, the TGI in the assay on HT29 colon turned out to be 41.9 µM; in the assay with CAKI-1 renal it was 47.5 µM; in the assay with KM20L2 colon, 31.7 µM; in the assay with DMS 273 small cell lung, 37.3 µM; in the assay with NCI-H522 lung, 30.3 µM; with COLO 205 colon, 35 µM.
For the compound `CN(C)/C=N\c1ccnc(=O)[nH]1`, the TGI in the assay on M19-MEL melanoma, with SF-539 CNS, with DLD-1 colon, in the assay with XF 498 CNS, with LXFL 529 NSCLC and in the assay with SNB-78 CNS was > 100 µM throughout. For the same compound, the TGI in the assay with HT29 colon, with CAKI-1 renal, in the assay on KM20L2 colon, in the assay with DMS 273 small cell lung, in the assay with NCI-H522 lung and in the assay with COLO 205 colon was > 100 µM throughout.
Turning to `Cc1cccc2c1c1ccc3c(c1n2C)C(=O)C=CC3=O`, the TGI in the assay with M19-MEL melanoma came out at 14.9 µM; with SF-539 CNS, 15 µM; in the assay on DLD-1 colon it was 5.21 µM; in the assay on MOLT-4 leukemia, 2.99 µM; in the assay with LXFL 529 NSCLC, 4.22 µM; in the assay with SNB-78 CNS, 53.5 µM. Further, the TGI amounted to 14 µM in the assay on HT29 colon; 10.4 µM with CAKI-1 renal; 36.9 µM with KM20L2 colon; 8.3 µM with DMS 273 small cell lung; 2.97 µM with NCI-H522 lung; 6.26 µM in the assay on COLO 205 colon.
Turning to `CC(=O)NNc1nc(C)c(C(=O)NNC(=O)C(=O)Nc2cccc(C(C)=O)c2)s1`, the TGI in the assay with M19-MEL melanoma is 43.5 µM; in the assay on SF-539 CNS, 39.8 µM; in the assay on DLD-1 colon it was 98.9 µM; in the assay on XF 498 CNS it was 30.6 µM; with MOLT-4 leukemia, > 100 µM; in the assay with SNB-78 CNS, > 100 µM. Also, the TGI was > 100 µM in the assay on HT29 colon; 31.6 µM in the assay with CAKI-1 renal; > 100 µM with KM20L2 colon; > 100 µM in the assay on DMS 273 small cell lung; 28.9 µM in the assay on NCI-H522 lung; > 100 µM in the assay with COLO 205 colon.
In the case of `Cc1cc(NC(=O)C2C3C=CC(O3)C2C(=O)O)no1` (configuration not stated), the TGI in the assay with M19-MEL melanoma is 77.7 µM; in the assay with SF-539 CNS, 54.9 µM; in the assay on DLD-1 colon it was 49.2 µM; in the assay on XF 498 CNS, > 100 µM; in the assay with MOLT-4 leukemia, > 100 µM; in the assay with LXFL 529 NSCLC, 46.6 µM. Moreover, the TGI in the assay on SNB-78 CNS is > 100 µM; in the assay with HT29 colon it was > 100 µM; in the assay on KM20L2 colon, 26.6 µM; in the assay with DMS 273 small cell lung, 34.2 µM; in the assay with NCI-H522 lung, > 100 µM; in the assay with COLO 205 colon, 31.5 µM.
In the case of `C[S+](C)CC1OC(n2cnc3c(N)ncnc32)C(O)C1O` (configuration not stated), the TGI in the assay with M19-MEL melanoma, in the assay on SF-539 CNS, with DLD-1 colon, in the assay on XF 498 CNS, in the assay on MOLT-4 leukemia and with SNB-78 CNS was > 225 µM throughout. Also, the TGI in the assay with HT29 colon, in the assay on CAKI-1 renal, in the assay on KM20L2 colon, in the assay with DMS 273 small cell lung, with NCI-H522 lung and in the assay with COLO 205 colon was > 225 µM in each case.
